Reference: EP0567562B1, “METHODS FOR DETECTING GLUCAGON ANTAGONISTS” (ZYMOGENETICS, INC., priority 1991, dated 1996)

Test system: glucagon receptor
Test: Glucagon antagonist screening assay: adenylate cyclase reaction with rat liver membranes, cAMP measured by Scintillation Proximity Assay
Assay type: biochemical
Source text: Young female Sprague-Dawley rats were used for the preparation of liver membranes using the method essentially described by Neville (ibid.) and modified by Pohl et al. (ibid). Ten to 15 rats yielding 60-100 grams of liver were processed per batch. After the rats were euthanized by cervical dislocation, their livers were surgically removed and transferred, as quickly as possible, to an iced beaker. Scissors were used to mince the tissue into pieces approximately 3-6 mm in size. Any connective tissue that was present was removed.
The minced tissue was suspended in ice cold 1 mM sodium bicarbonate at a concentration of approximately 300 g/I. This suspension was processed in batches in a tissue homogenizer with eight strokes of the loose pestle. […]
After centrifugation, as much of the supernatant as possible was carefully decanted and discarded, and the pellets were gently resuspended in the remaining supernatant with three strokes of the loose pestle in a clean tissue homogenizer. […] After thorough mixing, the sucrose concentration was measured with a refractometer and adjusted to between 43.9% and 44 1% sucrose (corresponding to a refractive index between 1.4076 and 1.4080) with either 69% sucrose or water. […]

Row | antagonist activity: CAMP response of rat liver membranes to three concentrations of glucagon (culture broth of the yeast strain, compared with control strains making des-His^1-glucagon and des-His^1-[Glu^9]glucagon) | Compound | stimulation of adenylate cyclase activity by culture broth in the absence of exogenous glucagon (yeast culture broth, no exogenous glucagon)
1 | – | glucagon [ZB210] | stimulation of adenylate cyclase activity even in the absence of exogenous glucagon
2 | weak antagonist | CSCC[C@H](NC(=O)[C@H](CC(C)C)NC(=O)[C@H](Cc1c[nH]c2ccccc12)NC(=O)[C@H](CCC(N)=O)NC(=O)[C@@H](NC(=O)[C@H](Cc1ccccc1)NC(=O)[C@H](CC(=O)O)NC(=O)[C@H](CCC(N)=O)NC(=O)[C@H](C)NC(=O)[C@H](CCCNC(=N)N)NC(=O)[C@H](CCCNC(=N)N)NC(=O)[C@H](CO)NC(=O)[C@H](CC(=O)O)NC(=O)[C@H](CC(C)C)NC(=O)[C@H](Cc1ccc(O)cc1)NC(=O)[C@H](CCCCN)NC(=O)[C@H](CO)NC(=O)[C@H](Cc1ccc(O)cc1)NC(=O)[C@H](CC(=O)O)NC(=O)[C@H](CO)NC(=O)[C@@H](NC(=O)[C@H](Cc1ccccc1)NC(=O)[C@@H](NC(=O)CNC(=O)[C@H](CCC(N)=O)NC(=O)[C@@H](N)CO)[C@@H](C)O)[C@@H](C)O)C(C)C)C(=O)N[C@@H](CC(N)=O)C(=O)N[C@H](C(=O)O)[C@@H](C)O [des-His^1-glucagon] | –
